Measured values published in ChEMBL document CHEMBL3286374, “Muchimangins G-J, fully substituted xanthones with a diphenylmethyl substituent, from Securidaca longepedunculata” (J Nat Prod, 2014).
Activity calls are given as the source filed them. No cut-off for these calls is given here.

Legend:
[1] = tested on: PANC-1; assay: Cytotoxicity against human PANC1 cells in nutrient-rich DMEM media by WST8 assay; type: functional, cell-based
[2] = tested on: PANC-1; assay: Cytotoxicity against human PANC1 cells in nutrient-deprived NDM media by WST8 assay; type: functional, cell-based

Compound | Activity [1] | Activity [2]
COc1cc(OC)c(C(c2ccccc2)c2c(O)c(OC)c3oc4c(OC)c5c(c(OC)c4c(=O)c3c2O)OCO5)cc1OC (stereo not drawn) | inactive | inactive
COc1cc(OC)c(C(c2ccccc2)c2c(O)c(OC)c3oc4c(OC)c(OC)c(OC)c(O)c4c(=O)c3c2O)cc1OC (stereo not drawn) | inactive | inactive
COc1cc(OC)c(C(c2ccccc2)c2c(O)c(OC)c3oc4c(O)c(OC)c(OC)c(OC)c4c(=O)c3c2O)cc1OC (stereo not drawn) | inactive | inactive
COc1cc(OC)c(C(c2ccccc2)c2c(O)c(OC)c3oc4c(OC)c(O)c(OC)c(O)c4c(=O)c3c2O)cc1OC (stereo not drawn) | inactive | inactive
